Results as given in ChEMBL document CHEMBL1649259, “High prevalence of CTX-M-type beta-lactamases among clinical isolates of Enterobacteriaceae in Bamako, Mali” (2009).

Tests used:
Format in all cases: functional
Enterobacter cloacae [1] = assay: Antibacterial activity against CTX-M-15 ESBL producing Enterobacter cloacae assessed as resistant isolates by disk diffusion method
Escherichia coli [2] = assay: Antibacterial activity against CTX-M-15 and SHV-12 ESBL producing Escherichia coli assessed as resistant isolates by disk diffusion method
Escherichia coli [3] = assay: Antibacterial activity against CTX-M-15 and SHV-27 ESBL producing Escherichia coli assessed as resistant isolates by disk diffusion method
Klebsiella pneumoniae [4] = assay: Antibacterial activity against CTX-M-14 ESBL producing Klebsiella pneumoniae assessed as resistant isolates by disk diffusion method
Escherichia coli [5] = assay: Antibacterial activity against CTX-M-14 ESBL producing Escherichia coli assessed as resistant isolates by disk diffusion method
Morganella morganii = assay: Antibacterial activity against CTX-M-14 ESBL producing Morganella morganii assessed as resistant isolates by disk diffusion method
Escherichia coli [6] = assay: Antibacterial activity against CTX-M-15 ESBL producing Escherichia coli assessed as resistant isolates by disk diffusion method
Klebsiella pneumoniae [7] = assay: Antibacterial activity against SHV-12 ESBL producing Klebsiella pneumoniae assessed as resistant isolates by disk diffusion method
Escherichia coli [8] = assay: Antibacterial activity against SHV-12 ESBL producing Escherichia coli assessed as resistant isolates by disk diffusion method
Klebsiella pneumoniae [9] = assay: Antibacterial activity against CTX-M-15 ESBL producing Klebsiella pneumoniae assessed as resistant isolates by disk diffusion method
Proteus mirabilis = assay: Antibacterial activity against CTX-M-14 ESBL producing Proteus mirabilis assessed as resistant isolates by disk diffusion method
Enterobacter cloacae [10] = assay: Antibacterial activity against SHV-12 ESBL producing Enterobacter cloacae assessed as resistant isolates by disk diffusion method

| Molecule | Activity (Enterobacter cloacae [1]) | Activity (Escherichia coli [2]) | Activity (Escherichia coli [3]) | Activity (Klebsiella pneumoniae [4]) | Activity (Escherichia coli [5]) | Activity (Morganella morganii) | Activity (Escherichia coli [6]) | Activity (Klebsiella pneumoniae [7]) | Activity (Escherichia coli [8]) | Activity (Klebsiella pneumoniae [9]) | Activity (Proteus mirabilis) | Activity (Enterobacter cloacae [10]) |
| --- | --- | --- | --- | --- | --- | --- | --- | --- | --- | --- | --- | --- |
| O=C(N[C@H](CO)[C@H](O)c1ccc([N+](=O)[O-])cc1)C(Cl)Cl [CHLORAMPHENICOL] | 100% | 100% | 100% | 67% | 82% | 100% | 73% | 83% | 100% | 40% | 100% | 89% |
| NC[C@H]1O[C@H](O[C@H]2[C@H](O)[C@@H](O[C@H]3O[C@H](CO)[C@@H](O)[C@H](N)[C@H]3O)[C@H](N)C[C@@H]2N)[C@H](N)C[C@@H]1O [TOBRAMYCIN] | 100% | 100% | 100% | 67% | 100% | 100% | 97% | 83% | 100% | 96% | 0% | 89% |
| GENTAMICIN | 100% | 100% | 100% | 67% | 100% | 100% | 83% | 33% | 0% | 89% | 0% | 12% |
| NCC[C@H](O)C(=O)N[C@@H]1C[C@H](N)[C@@H](O[C@H]2O[C@H](CN)[C@@H](O)[C@H](O)[C@H]2O)[C@H](O)[C@H]1O[C@H]1O[C@H](CO)[C@@H](O)[C@H](N)[C@H]1O [AMIKACIN] | 0% | 0% | 0% | 0% | 0% | 100% | 17% | 50% | 100% | 20% | 0% | 78% |
| COc1cc(Cc2cnc(N)nc2N)cc(OC)c1OC [TRIMETHOPRIM] | 100% | 100% | 100% | 100% | 100% | 100% | 95% | 100% | 100% | 100% | 100% | 89% |
| CCn1cc(C(=O)O)c(=O)c2ccc(C)nc21 [NALIDIXIC ACID] | 100% | 100% | 0% | 67% | 100% | 100% | 98% | 83% | 100% | 93% | 100% | 100% |
| O=C(O)c1cn(C2CC2)c2cc(N3CCNCC3)c(F)cc2c1=O [CIPROFLOXACIN] |  | 100% | 100% | 33% | 100% | 100% | 98% | 67% | 0% |  | 100% |  |
| CN(C)[C@@H]1C(O)=C(C(N)=O)C(=O)[C@@]2(O)C(O)=C3C(=O)c4c(O)cccc4[C@@](C)(O)[C@H]3C[C@@H]12 [TETRACYCLINE] | 100% | 100% | 0% | 67% | 82% | 100% | 88% | 50% | 100% | 84% | 100% | 89% |
| CCn1cc(C(=O)O)c(=O)c2cc(F)c(N3CCNCC3)cc21 [NORFLOXACIN] | 100% | 100% | 100% | 33% | 100% | 100% | 98% | 67% | 100% | 96% | 100% | 89% |
